{
  "source": "PubChem BioAssay AID1259407",
  "about": "(Chemical Carcinogenesis Research Information System (CCRIS), 2018)",
  "tested_on": "CCRIS mutagenicity, Ames/micronucleus/aberration tests",
  "test": "CCRIS mutagenicity studies",
  "note": "Calls of active or inactive are those of the source. How the calls were made is not given here.",
  "data": [
    {"smiles": "O=C(O)C(Cl)Br", "note": "(configuration not stated)", "values": [
      {"measurement": "mutagenic call", "setting": "End Point: In vivo micronucleus, Test System: Peripheral blood normochromatic erythrocytes, Species: Mouse, Strain/Sex: B6C3F1/Female, Route: Oral", "result": "inactive; negative"},
      {"measurement": "mutagenic call", "setting": "End Point: In vivo micronucleus, Test System: Peripheral blood normochromatic erythrocytes, Species: Mouse, Strain/Sex: B6C3F1/Male, Route: Oral", "result": "inactive; negative"},
      {"measurement": "mutagenic call", "setting": "Test System: AMES SALMONELLA TYPHIMURIUM, Strain/Indicator: TA98, Metabolic Activation: NONE, Method: PREINCUBATION", "result": "inactive; negative"},
      {"measurement": "mutagenic call", "setting": "Test System: AMES SALMONELLA TYPHIMURIUM, Strain/Indicator: TA98, Metabolic Activation: RAT, LIVER, S-9, PHENOBARBITAL AND 5,6-BENZOFLAVONE, Method: PREINCUBATION", "result": "inactive; negative"},
      {"measurement": "mutagenic call", "setting": "Test System: AMES SALMONELLA TYPHIMURIUM, Strain/Indicator: TA100, Metabolic Activation: NONE, Method: PREINCUBATION", "result": "active; positive"},
      {"measurement": "mutagenic call", "setting": "Test System: AMES SALMONELLA TYPHIMURIUM, Strain/Indicator: TA100, Metabolic Activation: RAT, LIVER, S-9, PHENOBARBITAL AND 5,6-BENZOFLAVONE, Method: PREINCUBATION", "result": "active; positive"},
      {"measurement": "mutagenic call", "setting": "Test System: Ames Salmonella typhimurium, Strain/Indicator: TA98, Metabolic Activation: Hamster, Liver, S9, Aroclor 1254, Method: Preincubation", "result": "inactive; negative"},
      {"measurement": "mutagenic call", "setting": "Test System: Ames Salmonella typhimurium, Strain/Indicator: TA98, Metabolic Activation: None, Method: Preincubation", "result": "inactive; negative"},
      {"measurement": "mutagenic call", "setting": "Test System: Ames Salmonella typhimurium, Strain/Indicator: TA98, Metabolic Activation: Rat, Liver, S9, Aroclor 1254, Method: Preincubation", "result": "inactive; negative"},
      {"measurement": "mutagenic call", "setting": "Test System: Ames Salmonella typhimurium, Strain/Indicator: TA100, Metabolic Activation: Hamster, Liver, S9, Aroclor 1254 (30%), Method: Preincubation", "result": "active; positive"},
      {"measurement": "mutagenic call", "setting": "Test System: Ames Salmonella typhimurium, Strain/Indicator: TA100, Metabolic Activation: Rat, Liver, S9, Aroclor 1254 (10%), Method: Preincubation", "result": "active; positive"},
      {"measurement": "mutagenic call", "setting": "Test System: Ames Salmonella typhimurium, Strain/Indicator: TA100, Metabolic Activation: Rat, Liver, S9, Aroclor 1254 (30%), Method: Preincubation", "result": "active; positive"},
      {"measurement": "mutagenic call", "setting": "Test System: E. coli, Strain/Indicator: WP2 uvrA/pKM101, Metabolic Activation: None, Method: Preincubation", "result": "inactive; negative"},
      {"measurement": "mutagenic call", "setting": "Test System: E. coli, Strain/Indicator: WP2 uvrA/pKM101, Metabolic Activation: Rat, Liver, S9, Aroclor 1254 (10%), Method: Preincubation", "result": "inactive; negative"}
    ]},
    {"smiles": "OC1Cc2cc3cccc4ccc5ccc1c2c5c43", "note": "(configuration not stated)", "values": [
      {"measurement": "mutagenic call", "setting": "Test System: AMES SALMONELLA TYPHIMURIUM, Strain/Indicator: TA98, Metabolic Activation: HUMAN, LIVER, CYTOSOL, PAPS, Method: PREINCUBATION", "result": "active; positive"}
    ]},
    {"smiles": "CCCCOC(C)=O", "values": [
      {"measurement": "mutagenic call", "setting": "Test System: AMES SALMONELLA TYPHIMURIUM, Strain/Indicator: TA97, Metabolic Activation: HAMSTER, LIVER, S-9, AROCLOR 1254 (10 OR 30%), Method: PREINCUBATION", "result": "inactive; negative"},
      {"measurement": "mutagenic call", "setting": "Test System: AMES SALMONELLA TYPHIMURIUM, Strain/Indicator: TA97, Metabolic Activation: NONE, Method: PREINCUBATION", "result": "inactive; negative"},
      {"measurement": "mutagenic call", "setting": "Test System: AMES SALMONELLA TYPHIMURIUM, Strain/Indicator: TA97, Metabolic Activation: RAT, LIVER, S-9, AROCLOR 1254 (10 OR 30%), Method: PREINCUBATION", "result": "inactive; negative"},
      {"measurement": "mutagenic call", "setting": "Test System: AMES SALMONELLA TYPHIMURIUM, Strain/Indicator: TA98, Metabolic Activation: HAMSTER, LIVER, S-9, AROCLOR 1254 (10 OR 30%), Method: PREINCUBATION", "result": "inactive; negative"},
      {"measurement": "mutagenic call", "setting": "Test System: AMES SALMONELLA TYPHIMURIUM, Strain/Indicator: TA98, Metabolic Activation: RAT, LIVER, S-9, AROCLOR 1254 (10 OR 30%), Method: PREINCUBATION", "result": "inactive; negative"},
      {"measurement": "mutagenic call", "setting": "Test System: AMES SALMONELLA TYPHIMURIUM, Strain/Indicator: TA98, Metabolic Activation: RAT, LIVER, S-9, KC 500, Method: PREINCUBATION", "result": "inactive; negative"},
      {"measurement": "mutagenic call", "setting": "Test System: AMES SALMONELLA TYPHIMURIUM, Strain/Indicator: TA98, Metabolic Activation: RAT, LIVER, S-9, PHENOBARBITAL AND BETA-NAPHTHOFLAVONE, Method: PREINCUBATION", "result": "inactive; negative"},
      {"measurement": "mutagenic call", "setting": "Test System: AMES SALMONELLA TYPHIMURIUM, Strain/Indicator: TA100, Metabolic Activation: HAMSTER, LIVER, S-9, AROCLOR 1254 (10 OR 30%), Method: PREINCUBATION", "result": "inactive; negative"},
      {"measurement": "mutagenic call", "setting": "Test System: AMES SALMONELLA TYPHIMURIUM, Strain/Indicator: TA100, Metabolic Activation: RAT, LIVER, S-9, AROCLOR 1254 (10 OR 30%), Method: PREINCUBATION", "result": "inactive; negative"},
      {"measurement": "mutagenic call", "setting": "Test System: AMES SALMONELLA TYPHIMURIUM, Strain/Indicator: TA100, Metabolic Activation: RAT, LIVER, S-9, KC 500, Method: PREINCUBATION", "result": "inactive; negative"},
      {"measurement": "mutagenic call", "setting": "Test System: AMES SALMONELLA TYPHIMURIUM, Strain/Indicator: TA100, Metabolic Activation: RAT, LIVER, S-9, PHENOBARBITAL AND BETA-NAPHTHOFLAVONE, Method: PREINCUBATION", "result": "inactive; negative"},
      {"measurement": "mutagenic call", "setting": "Test System: AMES SALMONELLA TYPHIMURIUM, Strain/Indicator: TA102, Metabolic Activation: NONE, Method: PREINCUBATION", "result": "inactive; negative"},
      {"measurement": "mutagenic call", "setting": "Test System: AMES SALMONELLA TYPHIMURIUM, Strain/Indicator: TA102, Metabolic Activation: RAT, LIVER, S-9, PHENOBARBITAL AND BETA-NAPHTHOFLAVONE, Method: PREINCUBATION", "result": "inactive; negative"},
      {"measurement": "mutagenic call", "setting": "Test System: AMES SALMONELLA TYPHIMURIUM, Strain/Indicator: TA104, Metabolic Activation: NONE, Method: PREINCUBATION", "result": "inactive; negative"},
      {"measurement": "mutagenic call", "setting": "Test System: AMES SALMONELLA TYPHIMURIUM, Strain/Indicator: TA104, Metabolic Activation: RAT, LIVER, 2-9, PHENOBARBITAL AND BETA-NAPHTHOFLAVONE, Method: PREINCUBATION", "result": "inactive; negative"},
      {"measurement": "mutagenic call", "setting": "Test System: AMES SALMONELLA TYPHIMURIUM, Strain/Indicator: TA104, Metabolic Activation: RAT, LIVER, S-9, PHENOBARBITAL AND BETA-NAPHTHOFLAVONE, Method: PREINCUBATION", "result": "inactive; negative"},
      {"measurement": "mutagenic call", "setting": "Test System: AMES SALMONELLA TYPHIMURIUM, Strain/Indicator: TA1535, Metabolic Activation: HAMSTER, LIVER, S-9, AROCLOR 1254 (10 OR 30%), Method: PREINCUBATION", "result": "inactive; negative"},
      {"measurement": "mutagenic call", "setting": "Test System: AMES SALMONELLA TYPHIMURIUM, Strain/Indicator: TA1535, Metabolic Activation: RAT, LIVER, S-9, AROCLOR 1254 (10 OR 30%), Method: PREINCUBATION", "result": "inactive; negative"},
      {"measurement": "mutagenic call", "setting": "Test System: AMES SALMONELLA TYPHIMURIUM, Strain/Indicator: TA1535, Metabolic Activation: RAT, LIVER, S-9, KC 500, Method: PREINCUBATION", "result": "inactive; negative"},
      {"measurement": "mutagenic call", "setting": "Test System: AMES SALMONELLA TYPHIMURIUM, Strain/Indicator: TA1535, Metabolic Activation: RAT, LIVER, S-9, PHENOBARBITAL AND BETA-NAPHTHOFLAVONE, Method: PREINCUBATION", "result": "inactive; negative"},
      {"measurement": "mutagenic call", "setting": "Test System: AMES SALMONELLA TYPHIMURIUM, Strain/Indicator: TA1537, Metabolic Activation: HAMSTER, LIVER, S-9, AROCLOR 1254 (30%), Method: PREINCUBATION", "result": "inactive; negative"},
      {"measurement": "mutagenic call", "setting": "Test System: AMES SALMONELLA TYPHIMURIUM, Strain/Indicator: TA1537, Metabolic Activation: RAT, LIVER, S-9, AROCLOR 1254 (30%), Method: PREINCUBATION", "result": "inactive; negative"},
      {"measurement": "mutagenic call", "setting": "Test System: AMES SALMONELLA TYPHIMURIUM, Strain/Indicator: TA1537, Metabolic Activation: RAT, LIVER, S-9, KC 500, Method: PREINCUBATION", "result": "inactive; negative"},
      {"measurement": "mutagenic call", "setting": "Test System: AMES SALMONELLA TYPHIMURIUM, Strain/Indicator: TA1537, Metabolic Activation: RAT, LIVER, S-9, PHENOBARBITAL AND BETA-NAPHTHOFLAVONE, Method: PREINCUBATION", "result": "inactive; negative"},
      {"measurement": "mutagenic call", "setting": "Test System: AMES SALMONELLA TYPHIMURIUM, Strain/Indicator: TA1538, Metabolic Activation: NONE, Method: PREINCUBATION", "result": "inactive; negative"},
      {"measurement": "mutagenic call", "setting": "Test System: AMES SALMONELLA TYPHIMURIUM, Strain/Indicator: TA1538, Metabolic Activation: RAT, LIVER, S-9, KC 500, Method: PREINCUBATION", "result": "inactive; negative"},
      {"measurement": "mutagenic call", "setting": "Test System: E. COLI, Strain/Indicator: WP2UVRA/PKM101, Metabolic Activation: NONE, Method: PREINCUBATION", "result": "inactive; negative"},
      {"measurement": "mutagenic call", "setting": "Test System: E. COLI, Strain/Indicator: WP2UVRA/PKM101, Metabolic Activation: RAT, LIVER, S-9, PHENOBARBITAL AND BETA-NAPHTHOFLAVONE, Method: PREINCUBATION", "result": "inactive; negative"},
      {"measurement": "mutagenic call", "setting": "Test System: E. COLI, Strain/Indicator: WP2 UVRA, Metabolic Activation: NONE, Method: PREINCUBATION", "result": "inactive; negative"},
      {"measurement": "mutagenic call", "setting": "Test System: E. COLI, Strain/Indicator: WP2UVRA, Metabolic Activation: NONE, Method: PREINCUBATION", "result": "inactive; negative"},
      {"measurement": "mutagenic call", "setting": "Test System: E. COLI, Strain/Indicator: WP2 UVRA, Metabolic Activation: RAT, LIVER, S-9, KC 500, Method: PREINCUBATION", "result": "inactive; negative"},
      {"measurement": "mutagenic call", "setting": "Test System: E. COLI, Strain/Indicator: WP2UVRA, Metabolic Activation: RAT, LIVER, S-9, PHENOBARBITAL AND BETA-NAPHTHOFLAVONE, Method: PREINCUBATION", "result": "inactive; negative"}
    ]}
  ]
}
